Source: PubChem BioAssay AID1996
Values after ≈ are worked out from the molar mass of the structure shown.

settings: buffer; pH 7.4; 200.0 µM

Row | SMILES | solubility kinetic
1 | Brc1cnc2nc(SCc3nc4ccccc4[nH]3)[nH]c2c1 | 1.2 µg/mL (≈ 3.33 µM)
2 | C=CCOC(=O)C1=C(C)OC(N)=C(C#N)C1c1ccco1 (stereo unspecified) | 9.6 µg/mL (≈ 33.5 µM)
3 | O=C(NCCOc1ccccc1F)c1cc([N+](=O)[O-])ccc1N1CCOCC1 | 55.5 µg/mL (≈ 143 µM)
4 | Cc1ccc2c(c1)c1nc3ccccc3nc1n2C | < 0.2 µg/mL
5 | COC(=O)c1oc(-c2ccccc2)nc1C | 15.6 µg/mL (≈ 71.8 µM)
6 | Cc1ccc(CC2CC(=O)N(c3cc(Cl)ccn3)C2=O)cc1 (stereo unspecified) | 13.7 µg/mL (≈ 43.5 µM)
7 | CCOc1ccc(NS(=O)(=O)c2cc(NC(=O)C3CC3)ccc2C)cc1Br | 3 µg/mL (≈ 6.62 µM)
8 | CCC1(c2ccccc2)NC(=O)N(CC(=O)Nc2ccc(N3CCOCC3)cc2)C1=O (stereo unspecified) | > 63.4 µg/mL
9 | CCc1ccccc1NC(=O)c1cc(-c2ccc(OC)cc2)on1 | < 0.3 µg/mL
10 | O=[N+]([O-])c1ccccc1S(=O)(=O)N/C(=N/S(=O)(=O)c1ccccc1)c1ccccc1 | > 66.8 µg/mL
11 | O=[N+]([O-])c1ccccc1Nc1c2ccccc2nc2ccccc12 | < 0.2 µg/mL
12 | CCc1ccccc1NC(=O)NC1CCCCCCC1 | 0.5 µg/mL (≈ 1.82 µM)
13 | Cc1cccc(Cn2nc(C(C)(C)C)cc2C(=O)N2CCOCC2)c1 | > 51.2 µg/mL
14 | Cc1ccc(SCC(=O)N(C)C2CCS(=O)(=O)C2)c(C)c1 (stereo unspecified) | > 49.1 µg/mL
15 | CCCN(CCC)S(=O)(=O)c1cccc(-c2csc(C)n2)c1 | 8 µg/mL (≈ 23.6 µM)
16 | O=C(c1cc2ccccc2o1)N1CCCC1 | > 32.3 µg/mL
17 | Cc1ccc(C(=O)O/N=C(\N)c2ccccn2)cc1C | 2.6 µg/mL (≈ 9.65 µM)
18 | O=C(/C=C/c1cccc(F)c1)N1CCN(c2ccccn2)CC1 | 39.4 µg/mL (≈ 127 µM)
19 | Cc1ccc(C(=O)O/N=C(\N)Cc2ccc([N+](=O)[O-])cc2)c(Cl)c1 | 3.9 µg/mL (≈ 11.2 µM)
20 | NS(=O)(=O)c1ccc(NC(=O)CN2CCCc3ccccc32)cc1 | 19.1 µg/mL (≈ 55.3 µM)
21 | COc1cc(C)c(NC(=S)NCCCN2CCOCC2)cc1OC | > 53 µg/mL
22 | CN(CC(=O)Nc1ccc(F)cc1)C(=O)c1ccccc1OCc1ccc(F)cc1 | 30.4 µg/mL (≈ 74.1 µM)
23 | COc1ccc(S(=O)(=O)NC(C)C(=O)N2CCCC2)cc1Cl (stereo unspecified) | 47 µg/mL (≈ 136 µM)
24 | COCCn1c(C)cc(C(=O)COc2cccnc2[N+](=O)[O-])c1C | 49.7 µg/mL (≈ 149 µM)

Row | SMILES | solubility kinetic
25 | COc1ccc2c(c1)[nH]c1c(=O)n(CCN3CCOCC3)cnc12 | 47.6 µg/mL (≈ 145 µM)
26 | COc1ccc(CC(=O)NCCc2cnc[nH]2)cc1 | > 38.9 µg/mL
27 | COC(CNC(=O)CN1CCN(Cc2ccccc2F)C1=O)OC | > 50.9 µg/mL
28 | COc1cccc(OCC(=O)O/N=C(\N)c2ccncc2)c1 | 39.9 µg/mL (≈ 132 µM)
29 | O=C(CCCc1nc(-c2ccccc2)no1)NC1CCCCC1 | 13.7 µg/mL (≈ 43.7 µM)
30 | CCOc1ccccc1C(=O)OCC(=O)NCc1ccc2c(c1)OCO2 | > 53.6 µg/mL
31 | Cc1cccc(C(C)C)c1NC(=O)CSc1cccc[n+]1[O-] | > 47.5 µg/mL
32 | Cc1nc([N+](=O)[O-])c(C(=O)OCc2ccc(C#N)cc2)n1C | 17.7 µg/mL (≈ 58.9 µM)
33 | O=C(NCCc1ccccc1)C(=O)Nc1ccc2c(c1)OCCO2 | < 0.3 µg/mL
34 | CCN1CCN(C(=S)NC(=O)c2cc(OC)c(OC)c(OC)c2)CC1 | > 55.1 µg/mL
35 | O=c1[nH]c(=O)n([C@H]2C[C@H](O)[C@@H](CO)O2)cc1C(F)(F)F | > 44.4 µg/mL
36 | O=C(Cc1csc(-c2ccccc2)n1)NCc1cccs1 | 15.6 µg/mL (≈ 49.6 µM)
37 | O=C(NS(=O)(=O)Nc1ccccn1)c1c[nH]c2ccccc12 | > 47.4 µg/mL
38 | CCc1ccccc1NC(=O)CCN1C(=O)C2CC=CCC2C1=O (stereo unspecified) | > 49 µg/mL
39 | O=C(Nc1ccc(S(=O)(=O)N2CCCCC2)cc1)C1CC1 | > 46.3 µg/mL
40 | CCC(C)(C)NC(=O)CN(C(=O)c1ccc(N2CCCC2)nc1)c1ccc(F)cc1 | 60.7 µg/mL (≈ 147 µM)
41 | CC(=O)N1N=C2C3CCN(CC3)C2C1c1ccc(F)cc1 (stereo unspecified) | > 43.1 µg/mL
42 | CC(=O)N(Cc1nc2sc(C)c(C)c2c(=O)[nH]1)C1CCCC1 | 19.5 µg/mL (≈ 61 µM)
43 | COc1ccc(Cl)cc1NC(=O)Nc1cc(C)on1 | 0.9 µg/mL (≈ 3.19 µM)
44 | Cc1ccc(F)cc1NC(=O)c1cnccn1 | > 34.7 µg/mL
45 | NS(=O)(=O)c1ccc(CNS(=O)(=O)c2cccc3nonc23)cc1 | 54.4 µg/mL (≈ 148 µM)
46 | O=C(COC(=O)c1cc(=O)[nH]c2ccccc12)NCc1cccs1 | > 51.4 µg/mL
47 | Cc1ccc(S(=O)(=O)n2c(C)nc3ccccc32)cc1 | 2.2 µg/mL (≈ 7.68 µM)
48 | COc1ccc(/C=C2\N=C(C)OC2=O)cc1[N+](=O)[O-] | 25.7 µg/mL (≈ 98 µM)

Row | SMILES | solubility kinetic
49 | OC(COc1ccc(Cl)cc1Cl)Cn1ccnc1 (stereo unspecified) | 39.6 µg/mL (≈ 138 µM)
50 | Cc1ccc(S(=O)(=O)NCc2ccccc2)cc1 | 25.9 µg/mL (≈ 99.1 µM)
51 | CC1CN(c2ccc(Cl)cc2)c2nc3c(c(=O)[nH]c(=O)n3C)n2C1 (stereo unspecified) | 1.2 µg/mL (≈ 3.47 µM)
52 | COc1cc(CCC(=O)NCc2ccc(F)cc2)cc(OC)c1OC | > 52.1 µg/mL
53 | Cc1cc(O)cc(=O)n1Cc1ccccc1 | > 32.3 µg/mL
54 | CC(=O)c1ccc(NC(=S)Nc2cccc3ccccc23)cc1 | 10.6 µg/mL (≈ 33.1 µM)
55 | O=C(Cn1cc(C(=O)c2ccccc2F)c2ccccc21)NC1CC1 | 2 µg/mL (≈ 5.95 µM)
56 | CCc1ccccc1NC(=O)C1CCN(C(=O)c2cccs2)CC1 | > 51.4 µg/mL
57 | Cc1ccc(OCC(=O)N2CCN(S(C)(=O)=O)CC2)cc1 | > 46.9 µg/mL
58 | CCc1ccccc1Nc1nc(-c2cccnc2)cs1 | 3.6 µg/mL (≈ 12.8 µM)
59 | O=C(NNC(=S)Nc1ccc(F)c(Cl)c1)C1CC1 | > 43.2 µg/mL
60 | CCN(CC(=O)Nc1ccc2c(c1)OCCO2)S(=O)(=O)c1ccc(F)cc1 | > 59.2 µg/mL
61 | CCN(Cc1ccncc1)C(=O)c1ccc(C)c(S(=O)(=O)N2CCCCC2)c1 | > 60.2 µg/mL
62 | O=C1NC(CCc2ccccc2)C(=O)N1CCOc1ccccc1 (stereo unspecified) | 2.5 µg/mL (≈ 7.71 µM)
63 | COc1ccccc1C(=O)OCC(=O)Nc1ccc(Cl)cn1 | 5.1 µg/mL (≈ 15.9 µM)
64 | COc1ccc(C2C(C)C3(O)CC(C#N)(C(=O)N3)C2(C#N)C#N)cc1 (stereo unspecified) | > 50.5 µg/mL
65 | Cc1cc(SCC(=O)c2ccc(O)c(O)c2)nc2ccccc12 | 3.5 µg/mL (≈ 10.8 µM)
66 | Cc1ccc(NC(=O)CN(C)Cc2c(O)ccc3ccccc23)cc1 | 23.7 µg/mL (≈ 70.9 µM)
67 | CC(=O)c1ccc(NC(=O)C(C)Nc2ccc(Cl)cc2)cc1 (stereo unspecified) | 40.9 µg/mL (≈ 129 µM)
68 | Cn1c(=O)n(CCOc2ccc([N+](=O)[O-])cc2)c2ccccc21 | 1.1 µg/mL (≈ 3.51 µM)
69 | CCOc1ccc(NC(=S)NC(=O)c2cccnc2)c([N+](=O)[O-])c1 | 4.3 µg/mL (≈ 12.4 µM)
70 | Cc1ccc(NC(=O)C(=O)NCCc2c[nH]c3ccccc23)cc1C | < 0.2 µg/mL
71 | N#CCCN1CCN(C(=O)c2c(N)no[n+]2[O-])CC1 | > 39.9 µg/mL
72 | CC(=O)c1ccc(OC(C)C(=O)Nc2cccc(S(=O)(=O)NCc3ccco3)c2)cc1 (stereo unspecified) | > 66.4 µg/mL

Row | SMILES | solubility kinetic
73 | COc1ccc(S(=O)(=O)n2c([N+](=O)[O-])cnc2C)cc1OC | > 49.1 µg/mL
74 | Cc1ccc(C(=O)NC(C)c2ccc(-n3ccnc3)cc2)c(C)c1 (stereo unspecified) | 46 µg/mL (≈ 144 µM)
75 | O=C1CN(S(=O)(=O)c2ccccc2Cl)CCN1 | > 41.2 µg/mL
76 | S=c1nc(COc2ccccc2)[nH]c2ccccc12 | 8 µg/mL (≈ 29.8 µM)
77 | O=C(O)c1ccccc1-n1cccc1C(=O)O | > 34.7 µg/mL
78 | O=S(=O)(c1cc(F)ccc1F)N1CCN2CCCC2C1 (stereo unspecified) | > 45.4 µg/mL
79 | Cc1cccc(C)c1C(=NCCN(C)C)c1ccccc1.Cl | > 53 µg/mL
80 | O=C(COC(=O)C1CC2C=CC1C2)Nc1ccc([N+](=O)[O-])cc1 (stereo unspecified) | > 47.4 µg/mL
81 | CC(=O)N1Cc2ccccc2CC1C(=O)NCc1ccccc1F (stereo unspecified) | > 49 µg/mL
82 | CC(C)(C)c1cc(NS(=O)(=O)c2ccc(Br)s2)no1 | 30.1 µg/mL (≈ 82.4 µM)
83 | O=C1c2ccccc2-c2cccc(C(=O)N3CCCCC3)c21 | 36.7 µg/mL (≈ 126 µM)
84 | O=C(NCCNc1ccccc1[N+](=O)[O-])c1ccccc1F | > 45.5 µg/mL
85 | O=C(Cn1c(=O)n(CC2CS2)c2ccccc21)N1CCCCCC1 (stereo unspecified) | 44.3 µg/mL (≈ 128 µM)
86 | Cc1ccc2[nH]cc(CCNC(=O)C3CCCO3)c2c1 (stereo unspecified) | > 40.9 µg/mL
87 | CCCOc1ccc(-c2csc3nc[nH]c(=O)c23)cc1 | 2.9 µg/mL (≈ 10.1 µM)
88 | COc1ccc(OC2CCN(S(=O)(=O)c3ccccc3)CC2)cc1 | 4.8 µg/mL (≈ 13.8 µM)
89 | CCC1(c2ccc(F)cc2)NC(=O)NC1=O (stereo unspecified) | 28.5 µg/mL (≈ 128 µM)
90 | CCn1cc(S(=O)(=O)Nc2cc(C(=O)OC)ccc2C)cn1 | > 48.5 µg/mL
91 | Cc1ccc(NS(=O)(=O)c2cccc(C(=O)Nc3cccnc3)c2)c(C)c1 | 6 µg/mL (≈ 15.7 µM)
92 | CCC1(C)Cc2ccccc2-c2nc(SCC(N)=O)[nH]c(=O)c21 (stereo unspecified) | 0.8 µg/mL (≈ 2.43 µM)
93 | Oc1ccc(N=Cc2c(O)ccc3ccccc23)cc1 | < 0.6 µg/mL
94 | O=C(NCC(=O)N1CCN(c2ncccn2)CC1)c1ccccc1OC(F)F | 52.2 µg/mL (≈ 133 µM)
95 | CN1CC(=O)N=C1N.Cl | > 22.4 µg/mL
96 | Cc1cc(NC(=O)c2cccc(S(=O)(=O)Nc3cccc(C(=O)O)c3)c2)no1 | > 60.2 µg/mL

Row | SMILES | solubility kinetic
97 | CSc1nc(S(=O)(=O)c2ccc(C)cc2)c(Cl)s1 | 10 µg/mL (≈ 31.3 µM)
98 | COc1ccc2cc(C(=O)N(C)Cc3ccccc3)[nH]c2c1 | < 0.3 µg/mL
99 | COc1ccc(CNC(=O)COc2ccc(F)cc2)cc1 | > 43.4 µg/mL
100 | COc1ccc(C(=O)COC(=O)c2ccc(N(C)C)cc2)cc1 | < 0.7 µg/mL
101 | O=c1[nH]cc(-c2ccc(Br)cc2)n1Cc1ccccc1 | 1.6 µg/mL (≈ 4.86 µM)
102 | CC1CCCC(C)N1C(=O)COC(=O)c1ccc2ccccc2n1 (stereo unspecified) | 15.3 µg/mL (≈ 46.9 µM)
103 | Cc1cccc(C(=O)OCC(=O)NC2CCCCCCC2)c1 | 21.6 µg/mL (≈ 71.2 µM)
104 | COc1ccc(CN2CCN(C3CCC3)CC2CCO)cc1C (stereo unspecified) | 42.3 µg/mL (≈ 133 µM)
105 | CCc1ccc(OCC(=O)Nc2ccc3oc(=O)ccc3c2)cc1 | 1.5 µg/mL (≈ 4.64 µM)
106 | CC1=C(C(=O)Nc2ccccc2)S(=O)(=O)CCO1 | 38 µg/mL (≈ 142 µM)
107 | Cc1ccc2nc(CCl)[n+]([O-])c(-c3ccccc3)c2c1 | 27.8 µg/mL (≈ 97.6 µM)
108 | Cc1ccc(CNS(=O)(=O)c2c(C)[nH]c(=O)[nH]c2=O)cc1 | > 46.4 µg/mL
109 | CC(NC(=O)CN1CCN(c2cccc(Cl)c2)CC1)c1ccccc1 (stereo unspecified) | 42.4 µg/mL (≈ 118 µM)
110 | COCc1c(C(=O)NCCc2ccc(OC(F)F)cc2)oc2ccccc12 | 13.5 µg/mL (≈ 36 µM)
111 | Cc1cc(=O)c2cc(Br)ccc2n1CC(=O)NCc1ccccc1 | 1.3 µg/mL (≈ 3.37 µM)
112 | CC1CCCN(c2ccc(C(=O)Nc3cccnc3)cc2[N+](=O)[O-])C1 (stereo unspecified) | 15.8 µg/mL (≈ 46.4 µM)
113 | O=[N+]([O-])c1cccc(S(=O)(=O)NCc2ccccn2)c1 | 41.2 µg/mL (≈ 140 µM)
114 | CCCOc1cc(C)c(S(=O)(=O)NCc2cccs2)cc1C | 9.1 µg/mL (≈ 26.8 µM)
115 | Cc1onc(-c2ccccc2)c1C(=O)NCC(O)c1ccccc1 (stereo unspecified) | > 48.4 µg/mL
116 | CC(C)Cn1cnc2c1c(=O)[nH]c(=O)n2Cc1ccccc1 | 32.7 µg/mL (≈ 110 µM)
